Data from ChEMBL document CHEMBL3751699, “Design, synthesis and evaluation of novel 7-aminoalkyl-substituted flavonoid derivatives with improved cholinesterase inhibitory activities” (Bioorg Med Chem, 2016).
Activity calls are given as the source filed them. No cut-off for these calls is given here.

How the values were obtained:
Acetylcholinesterase [1] = molecular target: T1, Acetylcholinesterase (Electrophorus electricus, UniProt O42275); test: Inhibition of electric eel AChE using ATC as substrate preincubated for 15 mins followed by substrate addition measured at 1 min intervals by Ellman method
Cholinesterase = Cholinesterase (Equus caballus, UniProt P81908); test: Inhibition of equine serum BChE using BTC as substrate preincubated for 15 mins followed by substrate addition measured at 1 min intervals by Ellman method
[2] = Selectivtiy index, ratio of IC50 for equine serum BChE to IC50 for electric eel AChE
[3] = Cytotoxicity against rat PC12 cells at 1 uM after 48 hrs by MTT assay; assay type: cell-based, PC-12; conditions: read-out: INH
[4] = Cytotoxicity against rat PC12 cells at 10 uM after 48 hrs by MTT assay; assay type: cell-based, PC-12; conditions: read-out: INH
[5] = Cytotoxicity against human HepG2 cells at 1 uM after 48 hrs by MTT assay; assay type: cell-based; conditions: read-out: INH
[6] = Cytotoxicity against human HepG2 cells at 10 uM after 48 hrs by MTT assay; assay type: cell-based; conditions: read-out: INH
[7] = molecular target: Cholinesterase (Equus caballus) (UniProt P81908); test: Mixed-type inhibition of equine serum BChE using BTC as substrate assessed as hydrolysis of BTC preincubated with protein for 15 mins followed by substrate addition by Lineweaver-Burk plot analysis
Acetylcholinesterase [8] = molecular target: T1, Acetylcholinesterase; test: Mixed-type inhibition of electric eel AChE using ATC as substrate assessed as hydrolysis of ATC preincubated with protein for 15 mins followed by substrate addition by Lineweaver-Burk plot analysis
[9] = molecular target: Acetylcholinesterase (Electrophorus electricus) (UniProt O42275); test: Potency index, ratio of IC50 for rivastigmine to IC50 for test compound for inhibition of electric eel AChE by Ellman method
Sequence of Acetylcholinesterase (Electrophorus electricus) (O42275 24-633 limits assumed): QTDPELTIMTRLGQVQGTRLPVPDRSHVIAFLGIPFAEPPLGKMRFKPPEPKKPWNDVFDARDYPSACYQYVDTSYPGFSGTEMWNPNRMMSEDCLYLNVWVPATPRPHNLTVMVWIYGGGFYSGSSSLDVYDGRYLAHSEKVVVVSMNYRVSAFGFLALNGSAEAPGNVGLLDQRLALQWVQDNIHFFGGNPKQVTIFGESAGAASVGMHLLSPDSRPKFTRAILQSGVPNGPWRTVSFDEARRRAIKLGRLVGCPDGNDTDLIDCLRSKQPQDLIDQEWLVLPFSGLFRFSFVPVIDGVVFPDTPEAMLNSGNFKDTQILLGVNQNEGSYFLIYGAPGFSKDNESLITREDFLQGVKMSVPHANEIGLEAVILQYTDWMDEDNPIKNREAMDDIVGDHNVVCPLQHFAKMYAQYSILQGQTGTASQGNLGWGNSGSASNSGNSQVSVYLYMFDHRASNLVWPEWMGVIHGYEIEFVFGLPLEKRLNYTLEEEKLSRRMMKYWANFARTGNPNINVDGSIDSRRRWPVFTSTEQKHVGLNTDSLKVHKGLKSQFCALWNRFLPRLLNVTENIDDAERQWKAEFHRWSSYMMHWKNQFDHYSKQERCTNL

Sequence of Cholinesterase (P81908 whole entry): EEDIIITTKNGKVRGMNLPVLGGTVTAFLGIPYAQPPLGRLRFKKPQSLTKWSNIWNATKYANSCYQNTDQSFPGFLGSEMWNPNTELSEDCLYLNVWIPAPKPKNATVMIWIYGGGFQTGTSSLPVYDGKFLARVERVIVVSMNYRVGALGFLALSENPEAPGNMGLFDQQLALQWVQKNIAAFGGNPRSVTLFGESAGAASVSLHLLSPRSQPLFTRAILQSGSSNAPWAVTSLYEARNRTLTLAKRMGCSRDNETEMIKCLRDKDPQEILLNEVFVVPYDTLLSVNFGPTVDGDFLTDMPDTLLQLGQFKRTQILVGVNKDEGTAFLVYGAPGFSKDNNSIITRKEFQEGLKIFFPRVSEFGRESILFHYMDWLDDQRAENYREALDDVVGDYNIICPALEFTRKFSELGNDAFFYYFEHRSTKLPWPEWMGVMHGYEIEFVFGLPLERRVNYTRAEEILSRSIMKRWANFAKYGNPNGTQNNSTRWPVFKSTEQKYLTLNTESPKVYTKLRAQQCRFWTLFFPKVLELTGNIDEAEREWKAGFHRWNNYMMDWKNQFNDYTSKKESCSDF
T1 sequence (O42275 whole entry): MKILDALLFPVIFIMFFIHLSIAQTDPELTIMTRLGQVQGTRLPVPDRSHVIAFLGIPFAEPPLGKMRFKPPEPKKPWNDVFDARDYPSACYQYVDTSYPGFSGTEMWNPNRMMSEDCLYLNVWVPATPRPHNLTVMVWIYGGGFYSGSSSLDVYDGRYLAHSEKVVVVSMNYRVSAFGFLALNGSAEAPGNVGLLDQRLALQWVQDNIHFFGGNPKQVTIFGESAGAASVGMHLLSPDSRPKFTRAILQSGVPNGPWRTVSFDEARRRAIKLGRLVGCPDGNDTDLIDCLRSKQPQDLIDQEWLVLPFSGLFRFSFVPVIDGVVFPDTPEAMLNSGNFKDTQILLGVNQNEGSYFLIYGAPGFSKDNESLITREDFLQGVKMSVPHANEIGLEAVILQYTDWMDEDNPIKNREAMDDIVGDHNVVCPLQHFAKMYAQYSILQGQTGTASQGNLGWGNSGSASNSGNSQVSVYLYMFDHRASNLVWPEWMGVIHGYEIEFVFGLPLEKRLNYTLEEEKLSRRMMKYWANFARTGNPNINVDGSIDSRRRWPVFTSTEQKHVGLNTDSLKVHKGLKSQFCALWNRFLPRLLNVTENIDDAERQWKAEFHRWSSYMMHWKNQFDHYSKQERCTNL
Sequence of Cholinesterase (Equus caballus) (P81908 whole entry): as the sequence (P81908 whole entry) above

Row | SMILES | IC50 (Acetylcholinesterase [1]) | IC50 (Cholinesterase) | Ratio IC50 [2] | cytotoxicity at 48 h, 1 µM [3] | cytotoxicity at 48 h, 10 µM [4] | cytotoxicity at 48 h, 1 µM [5] | cytotoxicity at 48 h, 10 µM [6] | inhibition [7] | Ki (Acetylcholinesterase [8]) | Ratio IC50 [9]
1 | O=c1cc(-c2ccc(N3CCCC3)cc2)oc2cc(OCCCCCCCCN3CCCC3)ccc12 | 1380 nM | 4.1 µM | 2.97 | 0.29% | -9.56% | 5.74% | 19% | – | – | –
2 | O=c1cc(-c2ccc(O)cc2)oc2cc(OCCCCCCCCN3CCCC3)ccc12 | 1210 nM | 4.58 µM | 3.79 | 0.7% | 7.42% | 18.5% | 21.4% | – | – | –
3 | O=c1cc(-c2ccccc2O)oc2cc(OCCCCCCCCN3CCCC3)ccc12 | 3070 nM | 1.26 µM | 0.41 | -7.71% | 6.61% | 5.92% | 60.6% | – | – | –
4 | O=c1cc(-c2ccccc2OCc2ccccc2)oc2cc(OCCCCCCCCN3CCCC3)ccc12 | 2010 nM | 5.26 µM | 2.62 | 0.47% | 22.9% | 19.7% | 34.1% | – | – | –
5 | O=c1cc(-c2ccccc2)oc2cc(OCCCCCCCCN3CCCC3)ccc12 | 1090 nM | 2.24 µM | 2.05 | -2.83% | 1.37% | 11.3% | 8.97% | – | – | –
6 | O=c1cc(-c2ccc(Cl)cc2)oc2cc(OCCCCCCCCN3CCCC3)ccc12 | 1120 nM | 3.46 µM | 3.09 | 6.27% | -1.7% | 6.39% | 25.7% | – | – | –
7 | O=c1cc(-c2cccc3ccccc23)oc2cc(OCCCCCCCCN3CCCC3)ccc12 | 720 nM | 0.42 µM | 0.58 | 3% | 9.01% | 4.42% | 18.9% | Active | 206 nM | –
8 | Nc1c2c(nc3ccccc13)CCCC2 [TACRINE] | – | – | – | 4.62% | 10.2% | – | – | – | – | –
9 | COc1cccc(-c2cc(=O)c3ccc(OCCCCCCCCN4CCCC4)cc3o2)c1 | 670 nM | 2.29 µM | 3.42 | 3.53% | -18.2% | 16.2% | 23.7% | – | – | –
10 | COc1ccc(-c2cc(=O)c3ccc(OCCCCCCCCN4CCCC4)cc3o2)cc1 | 1700 nM | 5.42 µM | 3.19 | -0.15% | -6.72% | 6.69% | 21.5% | – | – | –
11 | O=c1cc(-c2cccc(OCc3ccccc3)c2)oc2cc(OCCCCCCCCN3CCCC3)ccc12 | 1580 nM | > 25 µM | > 15.8 | 0.79% | -2.53% | 6.63% | 30.6% | – | – | –
12 | O=c1cc(-c2cccc(O)c2)oc2cc(OCCCCCCCCN3CCCC3)ccc12 | 1120 nM | 4.92 µM | 4.39 | -4.43% | -6.56% | 19% | 43.9% | – | – | –
13 | COc1cc(-c2cc(=O)c3ccc(OCCCCCCCCN4CCCC4)cc3o2)cc(OC)c1OC | 1080 nM | 2.2 µM | 2.04 | -4.47% | -13.8% | 16.3% | 41.4% | – | – | –
14 | COc1ccc(-c2cc(=O)c3ccc(OCCCCCCCCN4CCCC4)cc3o2)cc1OC | 830 nM | 3.43 µM | 4.13 | 7.29% | -2.94% | 13.5% | 76% | – | – | –
15 | O=c1cc(-c2ccc(OCc3ccccc3)cc2)oc2cc(OCCCCCCCCN3CCCC3)ccc12 | 1900 nM | > 25 µM | > 13.2 | -2.83% | 1.37% | 10.4% | 54.3% | – | – | –
16 | COc1ccccc1-c1cc(=O)c2ccc(OCCCCCCCCN3CCCC3)cc2o1 | 640 nM | 0.76 µM | 1.19 | 3.08% | 3.4% | 5.9% | 24.3% | – | – | 10
17 | O=c1cc(-c2ccc(-c3ccccc3)cc2)oc2cc(OCCCCCCCCN3CCCC3)ccc12 | 4800 nM | > 25 µM | > 5.21 | 0.46% | 68.9% | 13.9% | 71.9% | – | – | –
18 | Cc1ccc(-c2cc(=O)c3ccc(OCCCCCCCCN4CCCC4)cc3o2)cc1 | 1250 nM | 1.92 µM | 1.54 | -0.55% | -0.03% | 9.17% | 77.1% | – | – | –
19 | O=c1cc(-c2ccc(Br)cc2)oc2cc(OCCCCCCCCN3CCCC3)ccc12 | 2150 nM | 10.2 µM | 4.77 | 2.5% | -12.5% | 13.3% | 10.8% | – | – | –
